The values that follow are results of earlier work, collected in patent publication US6376242B1, “Methods and compositions for treating platelet-related disorders using MPL pathway inhibitory agents” (Emory University, priority 1999, dated 2002).

The subject of the data set is megakaryocyte cell line. The conditions noted are these: in vitro.

On to `N#C/C(=C/c1ccc(O)c(O)c1)C(=O)NCc1ccccc1` [AG-490], for which the “inhibition of proliferation of a megakaryocyte cell line” value was “inhibit proliferation of a megakaryocyte cell line in vitro”.
